Reference: patent publication US11730795B2, “Pharmaceuticals and dosing means for human aging reversal” (INTERVENE IMMUNE, INC., priority 2017, dated 2023)

How the values were obtained:
insulin = assay type: in vivo, human; details: for control of GH-induced hyperinsulinemia by single agent: each agent alone with GH
Source text: (§1) Data variability was minimized and controlled by using each volunteer as their own control, and by standardizing the time and day of blood sampling. Blood was generally collected between 7 AM and 10 AM to avoid the effects of circadian and other temporal influences. In addition, patients standardized their pre-testing evening meal, used consistent testing sites and methods, and were redundantly tested between pre-established time points in some cases. All volunteers were asked to take supplements of 3000 IU vitamin D3 and 50 mg of elemental zinc daily. Further, volunteers were instructed not to consume food or alcohol within 4 hours of medication administration.
(§2) The initial dose of GH was 0.015 mg/kg, injected subcutaneously into superficial abdominal fat using a provided “pen” injector designed for this purpose. GH doses were varied over the time course described above so as to maximize IGF1, and were not adjusted for any changes in body weight.
Here, for context, insulin blood levels are expressed as a fraction of the distance from the bottom of the normal range to the top of the normal range. Although insulin control was not perfect, the final increase in insulin at trial end was acceptable based on volunteers averaging about one fifth of the upper limit for insulin. […] . Insulin and the normal insulin range were as reported by Quest Diagnostics.

prostate = assay: Report of one individual: prostatic hypertrophy with DHEA; assay type: in vivo, human
Source text: Accordingly, our results, methods, and medication compositions and combinations enable beneficial new treatments to improve human health and enable beneficial new drug indications.

[1] = 50 mg per day, 65-75 year old men, no GH, ref [46]; cited from earlier work
[2] = TRIIM trial: testosterone levels and benign prostatic hypertrophy under DHEA; details: with GH or GH plus metformin
Source text: Nine normal, putatively healthy 50-65 year-old male volunteers with normal age-related thymic involution were enrolled in and completed a clinical study performed under an IND from the US Food and Drug Administration and separate supervision from a California Institutional Review Board. […] The TRIIM trial (standing for Thymus Regeneration, Immunorestoration, and Insulin Mitigation) treatment period was limited to 12 months. Exclusion criteria included GH use in the prior 10 years, carpal tunnel syndrome, malignancies or high risk of malignancy, BMI greater than 30, PSA above the age-adjusted range, symptomatic prostatic hypertrophy, unstable metabolic disorders, unstable cardiovascular disorders, elevated levels of inflammatory markers, alcoholism, allergy to study medications, cognitive impairment, abnormal metabolic or hormonal results, existing type 1 or type 2 diabetes, or other unstable medical conditions.

[3] = Tolerability of high metformin doses; assay type: in vivo, human
Protocol: We were able to use higher doses with minimal to no difficulty by devising the following dosing methods.
In these methods, “dinner” need not be taken literally, the essence of the concept being to essentially administer a large virtual dose by combining two smaller doses that are administered within an effective time span, which may be 1-5 hours in duration, but preferably 1-2 hours in duration, to reduce side effects such as gastric distress while still enabling increased control of hyperinsulinemia.

epigenetic age = details: women, ref [35]; cited from earlier work
CD4/CD8 cell ratio = assay: TRIIM trial: CD4/CD8 cell ratio; assay type: in vivo, human; details: peak at 3, 6-9 or 12 months in different men; one non-responder
Source text: as §1, §2
The decline of CD4/CD8 cell ratio with aging is a classical indication of the “immune risk phenotype” or immunosenescence, and appears to occur with or without chronic viral exposure and has been a strong predictor of the short-term risk of death. Our results therefore indicate that prior art methods of regenerating the thymus require improvement. […]

Molecule	control of GH-induced hyperinsulinemia by single agent (insulin)	prostatic hypertrophy (prostate; DHEA alone or in combination with metformin)	prostatic hypertrophy (prostate; DHEA in combination with both metformin and GH)	glucose tolerance [1]	raising of testosterone levels ([2]; doses up to 200 mg)	induction of benign prostatic hypertrophy [2]	control of GH-induced hyperinsulinemia (insulin; 850-1200 mg metformin, morning after GH dose, even with DHEA)	tolerability ([3]; 500 mg with dinner plus 1000 mg with HGH and DHEA, total 1500 mg)	tolerability ([3]; 1500 mg at dinner plus 1000 mg with DHEA and HGH at bedtime, 2500 mg)	tolerability ([3]; 1500 or 2000 mg in one dose with GH at bedtime)	effect on epigenetic aging (epigenetic age)	course of CD4/CD8 cell ratio (CD4/CD8 cell ratio)	insulin level with GH alone (insulin; in vivo)
C[C@]12CC[C@H](O)CC1=CC[C@@H]1[C@@H]2CC[C@]2(C)C(=O)CC[C@@H]12 [DHEA, dehydroepiandrosterone]	neither agent alone was sufficient	caused immediate and significant prostatic hypertrophy	actually reversed	improve glucose tolerance	not found	not found	–	–	–	–	–	–	–
CN(C)C(=N)N=C(N)N [metformin]	neither agent alone was sufficient	–	–	–	–	–	very insufficient	universally well tolerated	well tolerated	well tolerated	not shown to either slow or reverse epigenetic aging	–	–
human growth hormone [GH]	–	–	–	–	–	–	–	–	–	–	–	peaks in the face of a constant or an increasing dose of GH or rise in IGF-1, and thereafter declines	rise in insulin
